One data set has as its system CYP3A4. The following applies: cited from earlier work.
The next data set concerns CYP1A2. As to conditions: cited from earlier work.
For data set [1] the following is noted: rat plasma, cited from earlier work; for share of AUC in plasma: metabolite of sorafenib.
For data set [2] the following is noted: dog plasma, cited from earlier work.
The conditions of data set [3]: human plasma, cited from earlier work.
A short description of data set [4]: Herbal drug pharmacokinetic interaction study of sorafenib in rat plasma (Part A). Type of data set: in vivo, Male Sprague-Dawley rats. As to conditions: for bioavailability: read-out: F (oral bioavailability). From the text:
The jugular-catheterized rats were randomly divided into four groups, Groups A1–A4, as described above. […] […] […] Data from these samples were used to construct pharmacokinetic profiles by plotting drug concentrations versus times.

Data set [5] deals with rat liver. Nature of the data set: Hepatotoxicity study: serum AST and ALT levels (Part D). The class given is in vivo. The protocol: (§1) Hepatotoxicity and histopathological experiments were performed on 42 jugular-catheterized rats that were randomly divided into Groups D1–D7 containing six animals, as described above. In the “Part D” study, an aqueous solution of the LDXGT formulation and sorafenib were each administered to rats by oral gavage. Blood samples were collected from the jugular vein at 0, 0.5 and 1 h after dosing for the […] group. […] Serum was obtained by centrifugation. The levels of the AST and ALT enzymes were determined using an automatic biochemical analysis. After blood sampling, the livers were dissected from the rats in each group and prepared using a series of processes.

In data set [6] the test system is rat liver. Nature of the data set: Histopathological analysis of liver slices, H&E staining (Part D). Type of data set: in vivo. The protocol:
Histopathological analyses were performed to quantitatively evaluate the degree of liver inflammation in our experimental model using a morphometric examination of liver sections and Modified Hepatic Activity Index Grading (Modified HAI Grading; Necroinflammatory Score).
as §1

The nature of data set [7]: Phase I CYP3A4 metabolism study: sorafenib pharmacokinetics after pretreatment with grapefruit juice or ketoconazole (Part B). As to conditions: for F (oral bioavailability) / CL: then single sorafenib 10 mg/kg p.o., mean ± SD, n = 6; for F (oral bioavailability): compared to Group A1 (3 mg/kg, i.v.), rat.
Where [8] appears, read: Group A2: sorafenib 10 mg/kg, p.o. alone, rat plasma, mean ± SD, n = 6.
Where [9] appears, read: Group A4: LDXGT formulation 2 g/kg/day p.o. for 5 consecutive days, then single sorafenib 10 mg/kg p.o., rat plasma, mean ± SD, n = 6.
Setting [10] is: male, Sprague-Dawley, rat, plasma, iv, 3 mg/kg, Group A1: sorafenib 3 mg/kg, i.v., rat plasma, mean ± SD, n = 6.
Where [11] appears, read: male, Sprague-Dawley, rat, plasma, po, 10 mg/kg, Group A2: sorafenib 10 mg/kg, p.o. alone, rat plasma, mean ± SD, n = 6.
[12] abbreviates: male, Sprague-Dawley, rat, plasma, po, 10 mg/kg, Group A3: LDXGT formulation 1 g/kg/day p.o. for 5 consecutive days, then single sorafenib 10 mg/kg p.o., rat plasma, mean ± SD, n = 6.
Setting [13] is: male, Sprague-Dawley, rat, plasma, po, 10 mg/kg, Group A4: LDXGT formulation 2 g/kg/day p.o. for 5 consecutive days, then single sorafenib 10 mg/kg p.o., rat plasma, mean ± SD, n = 6.

Where two headings read alike, the source gives them in different places.

What is called clearance is the rate of elimination divided by the concentration. Lower therefore signals inefficient removal. One may read the AUC as the area under the concentration-time curve, a measure of exposure. A low value points to less exposure. As a reminder, the Cmax is the maximum level reached in the sampled fluid or tissue. What is called half-life is how long it takes for the measured level to halve. The term bioavailability denotes the share of a dose that reaches the circulation, judged against a reference dose that is usually intravenous. What is called Tmax is the time at which the peak concentration occurs.

On to `O=c1cc(-c2ccccc2)oc2cc(O)c(O)c(O)c12` [baicalein], for which, in the data set on CYP3A4, the “effect on CYP3A4 enzyme activity” value is on record as “inhibited”.
`C=C[C@@H]1C2=CCOC(=O)C2=CO[C@H]1O[C@@H]1O[C@H](CO)[C@@H](O)[C@H](O)[C@H]1O` [gentiopicroside]: the “effect on CYP1A2 activity” value with CYP1A2 (microsomes) is listed as “significant increase”. In addition, the “effect on CYP3A4 enzyme activity” value in the data set on CYP3A4 is listed as “significant increase”.
Turning to `O=C(O)[C@H]1O[C@@H](Oc2cc3oc(-c4ccccc4)cc(=O)c3c(O)c2O)[C@H](O)[C@@H](O)[C@@H]1O` [baicalin], the “effect on CYP1A2 activity” value in the data set with CYP1A2 (in vitro, baicalin in human liver microsomes) is “inhibits”.
As to `CNC(=O)c1cc(Oc2ccc(NC(=O)Nc3ccc(Cl)c(C(F)(F)F)c3)cc2)cc[n+]1[O-]` [M-2], the “share of AUC in plasma” value was 0.9 % of AUC in [1] and 16.7 % of AUC in [3] (metabolite of sorafenib). In addition, the “presence of the metabolite in plasma” value in data set [2] was “absent”.
With `CNC(=O)c1cc(Oc2ccc(NC(=O)Nc3ccc(Cl)c(C(F)(F)F)c3)cc2)ccn1` [sorafenib, Sorafenib], in data set [4] (Group A2: single sorafenib 10 mg/kg, p.o., rat plasma, approximately), the “time after administration at which maximal plasma concentrations (Cmax) were observed” value is 3 to 8 h. For the same molecule, the CL in data set [4] (setting [8]) is on record as 1.8 ± 0.7 mL/min/kg; in data set [4] (Group A3: LDXGT formulation 1 g/kg/day p.o. for 5 consecutive days, then single sorafenib 10 mg/kg p.o., rat plasma, mean ± SD, n = 6) it was 2.1 ± 0.8 mL/min/kg; in data set [4] (setting [9]), 1.8 ± 0.2 mL/min/kg; in data set [7] (Group B1 (GFJ3): grapefruit juice 3 mL/day p.o. for 5 consecutive days, rat plasma), 2.0 ± 0.4 mL/min/kg; in data set [7] (Group B2 (GFJ6): grapefruit juice 6 mL/day p.o. for 5 consecutive days, rat plasma), 2.6 ± 1.1 mL/min/kg; in data set [7] (Group B4 (KCZ40): ketoconazole 40 mg/kg/day p.o. for 5 consecutive days, rat plasma) it was 2.3 ± 0.8 mL/min/kg. Further, the Vss in [4] (setting [8]) came out at 1.564 ± 0.477 L/kg; in data set [4] (setting [9]), 1.565 ± 0.231 L/kg. Also, the “F (oral bioavailability)” value came out at 49 ± 5.0% in data set [4] (Group A4: LDXGT formulation 2 g/kg/day p.o. for 5 consecutive days, then single sorafenib 10 mg/kg p.o., compared to Group A1 (3 mg/kg, i.v.), rat, mean ± SD, n = 6); 45 ± 11% in data set [7] (Group B1 (GFJ3): grapefruit juice 3 mL/day p.o. for 5 consecutive days); 39 ± 14% in [7] (Group B2 (GFJ6): grapefruit juice 6 mL/day p.o. for 5 consecutive days); 42 ± 14% in data set [7] (Group B4 (KCZ40): ketoconazole 40 mg/kg/day p.o. for 5 consecutive days). Further, in data set [4] (each of Groups A2–A4 (sorafenib 10 mg/kg p.o. alone or after LDXGT 1 or 2 g/kg/day), rat plasma, approximately), the “time after administration at which maximal plasma concentrations were reached” value fell in the range of 3 to 8 h. This molecule had a concentration at 8 min in [4] (male, Sprague-Dawley, rat, plasma, intravenous, 3 mg/kg) of 2840 ng/mL. In data set [4] (male, Sprague-Dawley, rat, plasma, iv, 3 mg/kg), this molecule gave a clearance of 1.1 ± 0.4 mL/min/kg. For the same molecule, the AUC in [4] (setting [10]) was 56000 ng·h/mL; in [4] (setting [11]), 104000 ng·h/mL; in data set [4] (setting [12]) it was 94200 ng·h/mL; in data set [4] (setting [13]), 91500 ng·h/mL. Also, the Cmax is 4600 ± 200 ng/mL in data set [4] (setting [10]), 5000 ± 1400 ng/mL in data set [4] (setting [11]), 4800 ± 1000 ng/mL in data set [4] (setting [12]) and 4800 ± 700 ng/mL in data set [4] (setting [13]). For the same molecule, the half-life in [4] (setting [10]) was found to be 8.32 ± 4.58 h; in data set [4] (setting [11]) it was 10.5 ± 1.97 h; in [4] (setting [12]) it was 10.8 ± 3.2 h; in data set [4] (setting [13]), 9.9 ± 2.55 h. Further, the Vd in data set [4] (male, Sprague-Dawley, rat, plasma, iv, 3 mg/kg, read-out: Vss) worked out at 1.19 ± 0.129 L/kg. Also, the bioavailability in data set [4] (male, Sprague-Dawley, rat, plasma, po, 10 mg/kg, Group A2: sorafenib 10 mg/kg, p.o. alone, compared to Group A1 (3 mg/kg, i.v.), rat, mean ± SD, n = 6) was found to be 56 ± 20%; in data set [4] (male, Sprague-Dawley, rat, plasma, po, 10 mg/kg), 50 ± 24%; in [7] (male, Sprague-Dawley, in vivo, po, 10 mg/kg), 52 ± 4.3%. The time to peak (Tmax) is 7 h in [4] (setting [11]), 6.33 h in [4] (setting [12]) and 5.17 h in data set [4] (setting [13]). The “pharmacokinetic properties across doses (concentration versus time profile)” value in [4] (pilot study, single dose 10, 20 and 40 mg/kg, p.o., rat plasma) was “dose-dependent”. The “liver function (AST and ALT)” value is recorded as “marked elevation” with rat liver [5] (repeated sorafenib 10 mg/kg for 2 weeks alone or combined with LDXGT, Groups D5–D7); “No significant difference” in the data set with rat liver [5] (single sorafenib dose 10 mg/kg p.o. alone or after LDXGT pretreatment, among Groups D2–D4, 0, 3 and 6 h after dosing). The “liver histopathology (H&E staining)” value with rat liver [6] (repeated administration groups, Groups D5–D7 (sorafenib 10 mg/kg for 2 weeks, alone or with LDXGT)) is “marked focal inflammation, portal inflammation, focal hemorrhage and congestion, focal lytic necrosis and hepatocyte apoptosis, liver cell degeneration and disrupted intercellular cohesion”; in the data set with rat liver [6] (single-dose groups, Groups D1–D4 (sorafenib 3 mg/kg i.v. or 10 mg/kg p.o., alone or after LDXGT)), “focal inflammation, portal inflammation, focal hemorrhage and congestion, focal lytic necrosis and hepatocyte apoptosis”. Also, the “time after administration at which maximal plasma concentrations were achieved” value in data set [7] (each of Groups A2, B1–B4 (sorafenib 10 mg/kg p.o. alone or after grapefruit juice or ketoconazole), rat plasma, approximately) was in the range of 3 to 8 h.
For the molecule `NC(=O)c1cc(Oc2ccc(NC(=O)Nc3ccc(Cl)c(C(F)(F)F)c3)cc2)ccn1` [M-4], the “presence of the metabolite in plasma” value in data set [1], in data set [2] and in data set [3] was “detected” each time.
Take `O=C(Nc1ccc(Oc2ccnc(C(=O)NCO)c2)cc1)Nc1ccc(Cl)c(C(F)(F)F)c1` [M-3]: the entries for the “share of AUC in plasma” value in data set [1] and in [2] (metabolite of sorafenib) were 12.1 % of AUC and 15.6 % of AUC, respectively.
Regarding `CC(=O)N1CCN(c2ccc(OCC3COC(Cn4ccnc4)(c4ccc(Cl)cc4Cl)O3)cc2)CC1` (stereo not drawn) [ketoconazole], in data set [7] (ketoconazole 400 mg/kg/day, sorafenib 10 mg/kg p.o., rats), the “effect on the pharmacokinetics of a single oral sorafenib dose” value is reported as “did not affect”.

(Values after PMC6152211 (Molecules : A Journal of Synthetic Chemistry and Natural …, 2017).)
